Reference: patent publication US11096967B2, “Pharmaceutical composition for preventing or treating regulatory T cell-mediated diseases” (SCM LIFESCIENCE CO., LTD., priority 2016, dated 2021)

Experiments:
Type in all cases: cell-based, human
ICOSL = ICOSL induction in hcMSC by priming factors (qRT-PCR, RT-PCR); settings: for levels of ICOSL mRNA in hcMSCs: IL-1β 10 ng/mL, TNF-α 10 ng/mL, LPS 2 μg/mL, qRT-PCR
Text: It has been known that the immunosuppressive activity of MSCs can be influenced by various priming or appropriate stimulations. It was confirmed that ICOSL expression in hcMSCs correlated with Treg induction. Thus, it was expected that ICOSL expression was enhanced to increase Treg and to strengthen the immunosuppressive function of hcMSCs. To confirm this expectation, an experiment was first carried out to confirm pro-inflammatory cytokine that can induce ICOSL expression. First, to find appropriate priming factors, hcMSCs were treated with IL-1β (10 ng/mL), TNF-α (10 ng/mL) and LPS (2 μg/mL) for 24 hours. Then, ICOSL expression was determined after 1 hour and 3 hours though qRT-PCR. Further, in order to confirm whether the expression of IL-1R in hcMSC was changed by […] treatment, the expression of IL-1R in hcMSC was confirmed after treatment with IL-1β for 24 hours. The results are illustrated in FIG. 16.

[1] = test system: PI3K-Akt signaling pathway; assay: Akt phosphorylation in CD4^+ T cells (Western blotting); settings: pre-treatment 30 min; LY294002 5 μM, GSK690693 1 μM
Method: Five independent experiments were carried out. […] After 2 days, hcMSCs were washed three times with cold phosphate-buffered saline (PBS) containing 0.05 mM ethylenediamine tetraacetic acid (EDTA) to detach lymphocytes from hcMSCs. Then, hcMSCs were trypsinized and washed twice with cold PBS-EDTA solution and stained with phycoerythrin (PE)-conjugated ICOSL antibody (BioLegend) to analyze ICOSL expression.
More particularly, CD4^+ T cells were pre-treated with LY294002 (5 μM) and GSK690693 (1 μM) for 30 min. […] Total Akt was determined.

CD4^+ T cells = assay: Effect of PI3K-Akt inhibitors on rhICOSL- or hcMSC-induced Treg induction; settings: 2 days; LY294002 5 μM, GSK690693 1 μM
Method: Akt inhibitor […] (Calbiochem, San Diego, Calif., USA) was used at a concentration of 1 μM and LY294002 (Cell Signaling Technology, Danvers, Mass., USA) was used at concentration of 5 to 10 μM. […] Total Akt was determined. […] The results are illustrated in FIG. 14.

Compound: TNF-α
- levels of ICOSL mRNA in hcMSCs (ICOSL): increased

Compound: CCn1c(-c2nonc2N)nc2c(C#CC(C)(C)O)ncc(OC[C@H]3CCCNC3)c21 [GSK690693]
- rhICOSL-induced Akt phosphorylation [1]: marked decrease in Akt phosphorylation
- rhICOSL or hcMSC-induced Tregs (CD4^+ T cells): decreased

Compound: IL-1β: pro-inflammatory cytokine used as priming factor for hcMSCs
- levels of ICOSL mRNA in hcMSCs (ICOSL): highest effect
- levels of ICOSL mRNA in hcMSCs (ICOSL; listed as IL-10): increased
- expression of IL-1R mRNA in hcMSC (ICOSL; IL-1β 10 ng/ml, 24 hours): did not change the expression of IL-1R mRNA
